We go through two compounds from paper PMC10294875, “Ether Derivatives of Naringenin and Their Oximes as Factors Modulating Bacterial Adhesion” (Antibiotics, 2023).

Assay [1] concerns Escherichia coli K12 (ATCC 10798). Put plainly: Adhesion assay, static conditions: E. coli to 3T3-L1 cell line. The assay is classed as cell-based. The procedure:
The study used two reference strains, Escherichia coli K12 (ATCC 10798) and Enterococcus faecalis (ATCC 29212), obtained from the American Type Culture Collection. Both strains were stored in trypticase soy broth (TSB; OXOID, Basingstoke, UK) with the addition of 30% glycerol at −70 °C in the museum resources of the Department of Microbiology at the Wroclaw Medical University.
For studies determining the interaction of bacteria with eukaryotic cells, suspensions of the tested strains were prepared in Luria broth (LB, Becton, Dickinson and Company, USA) medium with a bacterial density of 6 × 10^8 CFU/mL.
The adhesion ability of the tested bacterial strains to HT-29 and 3T3-L1 cell lines was determined by an in vitro adhesion assay as described previously. Eukaryotic cells were infected with prokaryotic cells in the presence of the examined compounds in pre-selected concentrations at an MOI (multiplicity of infection) ratio of 50. Cells were exposed to the tested strains and compounds for 2 h. After this time, unbound bacteria were removed by washing with PBS (Life Technologies Corporation, Carlsbad, CA, USA). The lysates acquired by cell lysis (0.5% Triton X-100 in LB): 90 min, 37 °C, 5% CO2 atmosphere, were then seeded onto TSA and MC media for E. faecalis and E. coli, respectively. The assays were performed in at least three independent experiments (cells from subsequent passages), each in triplicate. A control without tested compounds was set for each strain.

A further assay concerns 3T3-L1 cell line. Description: SRB assay, antiproliferative activity against 3T3-L1. The assay is classed as cell-based, mouse. The note with it: Mus musculus; 2 h incubation, SRB assay, 3T3-L1. The procedure: (§1) The human adenocarcinoma cell line, HT-29 (ATCC HTB-38), was cultured in αMEM medium (IITD PAN) supplemented with 10% fetal bovine serum, FBS (Sigma-Aldrich, Taufkirchen, Germany), 100 U/mL penicillin, 100 µg/mL streptomycin antibiotic solution (Sigma-Aldrich, Taufkirchen, Germany), and 2 mM glutamine solution (Sigma-Aldrich, Taufkirchen, Germany). Cells from less than 20 passages were used for the study. In turn, preadipocytes from mouse embryos with the morphology of fibroblast cells, line 3T3-L1 (ATCC CL-173), were cultured in DMEM high-glucose medium (Life Technologies Corporation, Carlsbad, CA, USA) with the same supplements as above. Cells from less than 14 passages were used for the study. Both tested cell lines were grown at 37 °C in 5% CO2.
(§2) The effect of O-alkyl derivatives of naringenin and their oximes on eukaryotic cells was checked using a slightly modified SRB test described earlier. Firstly, HT-29 (1 × 10^5 cells/mL) and 3T3-L1 (5 × 10^4 cells/mL) cell lines were incubated in adherent microtiter plates under the conditions described above. The cells were then treated for 2 h with the tested compounds 1a–10a and 1b–10b at concentrations of 1, 5, 10, 25, 50, 75, and 100 µg/mL each. After this time, the medium was removed and replaced with one containing 50% (wt/vol) trichloroacetic acid (TCA; Sigma-Aldrich, Taufkirchen, Germany). Following 1 h of incubation at 4 °C, the plate was rinsed with water, and then an acidic solution of 0.4% sulforhodamine B (SRB) (Sigma-Aldrich, Taufkirchen, Germany), was added to the dried wells and incubated in the dark for half an hour. At the end of this time, the SRB solution was replaced by 1% (vol/vol) acetic acid, and the stained protein precipitate was dissolved in 10 mM Tris base solution (pH 10.5). Absorbance was measured at 560 nm in a plate reader (GloMax Discover Microplate Reader, Promega).
(§3) The cytotoxic effect of O-alkyl derivatives of naringenin and their oximes on eukaryotic cells was expressed as the concentration of the tested compounds at which 50% growth inhibition of the tested cell lines was observed. Values were presented in the form of the survival index (SI)–IC50. All determinations were repeated in three independent experiments, each performed in three technical replicates. Moreover, the effect of DMSO (Sigma-Aldrich, Taufkirchen, Germany), the solvent present in all the initial solutions of the tested compounds, on the growth of the cell lines used in the study was also verified.
(In general: The SRB assay estimates cell density from bound dye.)

Assay [2] has as its system Enterococcus faecalis (ATCC 29212). Description: Bioflux microfluidic adhesion: E. faecalis to HT-29 cell line. The assay is classed as cell-based. The note with it: 50 µg/mL, control 1.55 ± 0.15. The procedure:
(§4) Determination of the impact of a dynamic medium flow on the adhesive capacity of bacteria was performed using the Bioflux 1000Z (Fluxion, San Francisco, CA, USA) with a coupled microscope environmental chamber (Pecton Incubator XL S1, Carl Zeiss, Jena, Germany), enabling the maintenance of 37 °C and microaerophilic conditions. At the very beginning, all channels of dedicated microfluidic plates (Fluxion, San Francisco, CA, USA) were flushed with 100 µL of αMEM or DMEM high-glucose medium with supplements (further named “cell line medium”; for details of the supplementation see “Cell culture procedure”) applying an intensive flow of 10 dyne/cm^2 for 10 s. After unblocking the lumen of the channels, the inlet and outlet wells were emptied, and 20 µL of 100 µg/mL fibronectin solution (Sigma-Aldrich, Taufkirchen, Germany) was added to each inlet channel. The medium was turned in the outlet direction at a flow rate of 1 dyne/cm^2 for 1 min. After this step, the plate was left for a 1 h incubation period to allow fibronectin to be absorbed on the surface of the microcapillaries. […] After completing this stage, photographs of the microcapillaries containing the tested biological materials were taken using an inverted fluorescence microscope (GabH, Jena, Germany) and the Bioflux Montage software (Fluxion, San Francisco, CA, USA). […]

Assay [3] shares this test system. Put plainly: Bioflux microfluidic adhesion: E. faecalis to 3T3-L1 cell line. The assay is classed as cell-based. To be noted: 50 µg/mL, control 0.29 ± 0.11. The procedure: as §4
Another assay deals with HT-29 cell line. Description: SRB assay, antiproliferative activity against HT-29. The assay is classed as cell-based, human. To be noted: Homo sapiens; 2 h incubation, SRB assay, HT-29. The procedure:
as §1, §2, §3

Assay [4] relates to Escherichia coli K12 (ATCC 10798). Put plainly: Bioflux microfluidic adhesion: E. coli to 3T3-L1 cell line. The assay is classed as cell-based. To be noted: 50 µg/mL, control 0.37 ± 0.13. The procedure: as §4
Assay [5] has the same test system. Put plainly: Bioflux microfluidic adhesion: E. coli to HT-29 cell line. The assay is classed as cell-based. The note with it: 50 µg/mL, control 0.65 ± 0.07. The procedure: as §4
Another assay deals with cell membranes. The arrangement: method as in PMID 10839220. The note with it: cited from earlier work.

Each structure is given as a SMILES string.

One may read the IC50 as the concentration at which inhibition is half-maximal. With `CCCCCCCCCOc1ccc([C@@H]2CC(=NO)c3c(O)cc(OCCCCCCCCC)cc3O2)cc1` [Compound 8b, 7,4’-di-O-nonylnaringenin oxime], in assay [1], the “effect on adhesion of E. coli to 3T3-L1 (in words)” value was “strongly enhance”. The IC50 in the assay with 3T3-L1 cell line and in the assay with HT-29 cell line was above 100 µg/mL throughout. The BB/EC ratio in assay [2] is given as 1.36 ± 0.08; in assay [3], 0.28 ± 0.15; in assay [5] it was 1.03 ± 0.06. In addition, the “BB/EC ratio (area of bacterial biomass adhered to the surface of the eukaryotic cells)” value in assay [4] was 0.6 ± 0.12.

With `O=C1C[C@@H](c2ccc(O)cc2)Oc2cc(O)cc(O)c21` [NG, naringenin], the “concentration at which the membrane-solidifying effect is revealed” value in the assay with cell membranes is recorded as at least 2.5 µg/mL. Besides, the half-inhibitory concentration (IC50) in the assay with 3T3-L1 cell line and in the assay on HT-29 cell line was above 100 µg/mL in each case.
